Source: US11512042B2, “Enamine compounds for absorbance of electromagnetic energy” (Commonwealth Scientific and Industrial Research Organisation, priority 2015, dated 2022)
Entries after “also recorded” stand apart in the source; their conditions may differ.

Experiments:
Assay type in all cases: physicochemical
[1] = UV absorbance spectrum in solution (λmax, λcrit, extinction coefficients); details: for λcrit: critical wavelength; for E (1%, 1 cm): mass extinction coefficient
Procedure, shortened: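 Spectra taken on 0.001% solutions in methanol, 10 mm path. Breakthrough is the wavelength where transmittance rises above 1%; steepness is the nm span over which transmittance goes from 1 to 80%.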

[2] = % transmission spectrum of 0.1% solution (breakthrough, steepness); details: for Steepness: distance in nm over which transmittance increases from 1 to 80%; for Breakthrough (1% T at 0.1%): value in nm where transmittance increases beyond 1%, 0.1% solution
Procedure, shortened: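 Transmission was recorded for 0.1% methanol solutions in a 2 mm cuvette. Breakthrough is the wavelength (nm) at which transmittance exceeds 1%; steepness is the nm span over which transmittance rises from 1 to 80%. Some values are averages of multiple measurements.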

[3] = Solubility in the photostability test solution; details: printed in the photostability (or steepness) column
From the text: The properties of these compounds are shown in table 9 with comparator compounds. […] In both cases low solubility meant that photostability could not be measured. This would not preclude use of the compounds in many applications where solubility is not at issue.
In one embodiment, the compounds may provide for improved solubility or stability in standard compositions, including sunscreen compositions. Such solubility may be measured by generating, for example, a 3% solution of the relevant compound in 2:1:1 EtOH:capric/caprylic triglyceride:C12-C15 alkyl benzoate.
1 mL of a 3% solution of the test compound (30 mg of test compound in 1 mL solvent) was prepared in a solvent mix made up of 50% EtOH and 25% capric/caprylic triglyceride and 25% C12-C15 alkyl benzoate. 50 μL of this solution (containing 1.5 mg of test compound) was added carefully to the centre of a glass microscope slide and the volatile components left to evaporate in the dark for at least 3 hours to give a liquid film. The prepared films were then exposed for 1 hour to an Eimac 150 W xenon arc lamp filtered through Pyrex (15 Amp supply current, samples 19 cm from the lamp) previously allowed to warm up for 15 minutes prior to sample exposure. […] One hour's exposure represented a calculated radiation dose (using meter) of approximately 100 MED.

[4] = Lens casting in CR-39 lens formulation; details: benzoyl peroxide initiator, cured 70° C. 18 hours, 0.1 wt %
Description: (§1) Two lens formulations were used. The first (CR-39) was composed of Di(ethylene glycol) bis(allylcarbonate) with 3% wt benzoyl peroxide as initiator. The second lens formulation (NK) was made up of 4 parts NK Ester BPE 100N (Ethoxylated Bisphenol A dimethacrylate) to 1 part NK Ester 9G (PEG 400 dimethacrylate) with 0.4 wt % AIBN as initiator.
(§2) Once the glue had dried the lens matrix (3 g of the lens matrix was treated with 3 mg of absorber, 0.1 wt % and stirred until dissolution complete. 3 g of the matrix was sufficient to prepare 3-4 lenses) was added via pipette to the interior until a convex meniscus was formed at the top of the O-ring. The mixture was then left to settle for 15 minutes during which time any bubbles formed were dispersed. A second microscope slide was then slowly rolled on top of the first to form a seal and expel any air. Taking care to maintain pressure the lens mould was then clamped at the sides with two “Bulldog” clips and cured in an oven at 70° C. for 18 hours. Once the curing process was complete the two microscope slides were separated and the lens removed from the O-ring before washing with acetone and drying/polishing with a soft tissue. The lenses thus formed were approximately 2 mm thick and 15 mm in diameter.
Of particular interest are compounds 163 and 164 which show an increase in λmax on constraining only the nitrogen substituent in a ring i.e. not the double bond. […] Additionally the dimethyl analogue 213 (structure in table 14) was also evaluated.

[5] = Lens casting in NK ester lens formulation; details: AIBN initiator, cured 70° C. 18 hours, 0.1 wt %
Description: as §1, §2

[6] = Stability to epoxy resin curing; details: 2 part epoxy resin, transmittance vs solution
Description: In order to test the stability of a number of compounds to a typical epoxy resin curing system, epoxy adhesive packs were obtained (Parfix 5 minute everyday epoxy adhesive, 24 ml). This is a standard 2 part epoxy resin with the first part composed of a viscous Bisphenol-A/epichlorohydrin polymeric reaction product. The second part is a viscous 30% solution of an aminophenol hardener, T (shown below). Epoxy resins cured by 1° and 2° amines are also available.
To test the stability of the compounds to the curing conditions, a 0.1% wt (1 mg absorber per gram of resin) was prepared and added to a mould comprising a 2 mm thick viton o-ring super glued to a microscope slide. […] Due to difficulties in solubilising the compounds in the mixed resin/hardener in the limited working time as the resin cured; the two barrels of the application syringe were separated with a scalpel allowing the separate application of both parts of the resin system.
This was then mixed thoroughly and immediately added to the moulds as described above. […]

[7] = PMMA film in QUV Weatherometer; details: type A bulbs, 70° C. 8 hours then dark humid 50° C. 4 h
Description: In order to gauge longer term photostability, the PMMA film samples were evaluated in a QUV Weatherometer using type A bulbs with solar irradiance at 70° C. for 8 hours followed by heating in the dark under a humid atmosphere at 50° C. for 4 h. The film was then sandwiched between 2 glass slides to prevent deformation and irradiated. The samples were evaluated by a visual comparison and measurement of transmittance spectra. […] This clearly indicates the suitability of compounds of the first aspect to incorporation into polymeric matrices and films. The relevant transmission spectra are shown in FIG. 11 (142), FIG. 12 (143), FIG. 13 (164), FIG. 14 (213) and FIG. 15 (215) wherein in all of these figures the lower plateau line represents the result following radiation and the upper line prior to irradiation.

[8] = Photostability protocol: thin film irradiated with xenon arc lamp; details: 1 hour xenon arc lamp
Procedure, shortened: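 A 3% solution in EtOH/triglyceride/alkyl benzoate is dried on glass slides into a liquid film of 1.5 mg compound. Films are irradiated 1 h with a Pyrex-filtered 150 W xenon arc lamp (about 100 MED, below 30° C). Washings are read by UV; stability is absorbance at λmax relative to unirradiated film.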

[9] = Irradiation in polyurethane varnish coating; details: 1% in polyurethane varnish, xenon arc lamp two hours
Description: As a model for the use of the compounds of the first aspect in coatings, a 1% solution by mass (10 mg in 1 g) of the compounds in British Paints oil based polyurethane varnish was applied to the surface of a microscope slide and left to dry overnight in the dark. The transmittance of the slide was then measured before irradiating the sample with a xenon arc lamp (as for the solution phase thin film samples) for two hours and the transmittance re-measured. Slight variations in the thickness of the films obtained would be sufficient to result in variations in transmittance so it was judged to be of equal importance to observe the slope of the samples before and after irradiation as any change here was likely an indicator of decomposition. The varnish itself blocks the transmission of light up to approximately 350-370 nm.

[10] = Irradiation of PMMA thin film (xenon lamp, sunlight); details: irradiated 1 h, 2 h and 3 weeks direct sunlight
Description: In order to determine the stability of the compounds in a polymer matrix, thin films were cast in Poly(methylmethacrylate) (PMMA). This was achieved by adding the compound in question to a solution of PMMA (Mw 240,000) in DCM and spreading the resulting solution onto a glass slide before evaporation over night to give the desired film. The film was then sandwiched between 2 glass slides to prevent deformation and irradiated. […] In this way films of compound 164 were prepared. The films were irradiated for 1 h, 2 h and also left outside exposed to direct sunlight and atmospheric conditions for 3 weeks (Melbourne summer time).

[11] = molar extinction coefficient, in M-1 cm-1 (unit assumed)

Row | SMILES | λmax [1] [nm] | ε ([1]; UV, at λmax) [M⁻¹ cm⁻¹] | λcrit [1] [nm] | E (1%, 1 cm) [1] | ε [1, 11] | Steepness [2] [nm] | Breakthrough (1% T at 0.1%) [2] [nm] | Solubility for photostability measurement [3] | Stability to lens casting conditions [4] | Stability to lens casting conditions [5] | Stability to epoxy resin curing [6] | Longer term photostability in PMMA film [7] | Photostability (% remains) [8] [%] | Photostability ([8]; ratio of absorbance at λmax irradiated vs unirradiated, ^a = average of multiple measurements) [%] | Stability to irradiation in varnish [9] | Stability in PMMA thin film [10]
1 | O=C(/C(=C\N(c1ccccc1)c1ccccc1)c1ccccc1)C(F)(F)F [Compound 143, 4-(diphenylamino)-1,1,1-trifluoro-3-phenylbut-3-en-2-one] | 351 | 27893 | 381 | 760 | 27893 | 32 | 402 | Not soluble | stable enough for such incorporation; also recorded: very little if any decomposition | very little if any decomposition | little or no decomposition occurred | little sign of decomposition after irradiation |  |  |  | 
2 | O=C(/C(=C\N1CCc2ccccc21)c1ccccc1)C(F)(F)F [Compound 164] | 367 |  | 389 | 1127 | 35741 | 20 | 418 |  | stable enough for such incorporation; also recorded: good stability to the lens curing conditions |  | remain intact after curing | little sign of decomposition after irradiation | 99 | 99 | largely unscathed by the irradiation | without compound deterioration
